Measured values taken from US5817840A, “Water soluble taxol derivatives” (The Scripps Research Institute, priority 1997, dated 1998).
Entries after “also recorded” stand apart in the source; their conditions may differ.

Assays:
[1] = cited from earlier work
SK (melanoma) = experiment: Cytotoxicity (sulphorhodamine B), cancer cell line, Table 1B; type: cell-based; settings: 72 h
[2] = test system: HL-60 (promyel carcinoma); experiment: as above; type: cell-based; settings: Homo sapiens, HL-60, 72 h
[3] = test system: CHO (normal human mammary); experiment: Cytotoxicity (sulphorhodamine B), normal cell line, Table 1B; type: cell-based; settings: Homo sapiens, 72 h
[4] = test system: 786-0 (renal cell carcinoma); experiment: Cytotoxicity (sulphorhodamine B), cancer cell line, Table 1B; type: cell-based; settings: Homo sapiens, 786-0, 72 h
[5] = test system: BALB/c 3T3 (normal mouse embryo); experiment: Cytotoxicity (sulphorhodamine B), normal cell line, Table 1B; type: cell-based; settings: BALB/c3T3, 72 h
[6] = test system: MOLT-4 (T-cell leukaemia); experiment: Cytotoxicity (sulphorhodamine B), cancer cell line, Table 1B; type: cell-based; settings: Homo sapiens, MOLT-4, 72 h
[7] = test system: CHO (Chinese hamster ovary); experiment: Cytotoxicity (sulphorhodamine B), normal cell line, Table 1B; type: cell-based; settings: Cricetulus griseus, 72 h
HT-29 (colon carcinoma) = experiment: Cytotoxicity (sulphorhodamine B), cancer cell line, Table 1B; type: cell-based; settings: Homo sapiens, HT-29, 72 h
[8] = test system: OVCAR-3 (ovarian carcinoma); experiment: as above; type: cell-based; settings: Homo sapiens, OVCAR-3, 72 h
Capan-1 (pancreatic) = experiment: as above; type: cell-based; settings: Homo sapiens, CAPAN-1, 72 h
[9] = test system: BT-549 (human breast ductal carcinoma); experiment: Cytotoxicity, Example 8; type: cell-based; settings: BT-549, 72 h
Procedure: (§1) Tumor or normal cells were cultured in 96-well plates with the test compound in 200 μl of RPMI supplemented with 10% fetal bovine serum (Hyclone, Salt Lake City, Utah) at 37° C. in a humidified atmosphere containing 5% CO2 in air for 72 hours. Sulforhodamine B dissolved in 1% acetic acid was added, and the plates were incubated for 30 minutes at ambient temperature, washed with 1% acetic acid, and blotted. To the air-dried plates were added 100 μl of […] unbuffered TRIS base (pH 10.5) with shaking. The optical densities of the plates were measured with a microplate reader (Molecular Devices Thermomax) at 540 nm. The concentration of compound required to reduce the absorbance to 50% of control samples was recorded as IC50.
(§2) NHDF: Normal human dermal fibroblast (available from Clouelics Corp., San Diego, Calif.); HLF-1: Normal human diploid lung; W1-38; Normal human diploid lung; CHO; Chinese hamster ovary; SK-MEL-28: Melanoma; CAPAN-1: Pancreatic carcinoma; H322: lung carcinoma; MCF-7; Breast carcinoma; BT-549; Human breast ductal carcinoma; OVCAR-3: Human ovarian carcinoma; HT-29: Human adenocarcinoma, colon; SIHA: Human squamous carcinoma crvx; 786-0: Human perirenal cell adenocarci; PC-3: Human prostate adenocarcinoma; HL-60: Human promyelomic leukemia; MOLT-4: Human T-cell leukemia. All cell lines except NHDF are available from the American Tissue Culture Collection, Rockville, Md.

[10] = test system: CAPAN-1 (pancreatic carcinoma); experiment: Cytotoxicity, Example 8; type: cell-based; settings: Homo sapiens, CAPAN-1, 72 h
Procedure: as §1, §2

[11] = test system: NHDF (normal human dermal fibroblast); experiment: Cytotoxicity, Example 8; type: cell-based; settings: 72 h
Procedure: as §1, §2

H322 (lung carcinoma) [12] = experiment: Cytotoxicity, Example 8; type: cell-based; settings: NCI-H322, 72 h
Procedure: as §1, §2

[13] = test system: PC-3 (human prostate adenocarcinoma); experiment: Cytotoxicity, Example 8; type: cell-based; settings: 72 h
Procedure: as §1, §2

[14] = test system: 786-0 (human perirenal cell adenocarci); experiment: Cytotoxicity, Example 8; type: cell-based; settings: 786-0, 72 h
Procedure: as §1, §2

[15] = test system: W1-38 (normal human diploid lung); experiment: Cytotoxicity, Example 8; type: cell-based; settings: W138, 72 h
Procedure: as §1, §2

MCF-7 (breast carcinoma) [16] = experiment: Cytotoxicity, Example 8; type: cell-based; settings: Homo sapiens, MCF7, 72 h
Procedure: as §1, §2

SK-MEL-28 (melanoma) = experiment: Cytotoxicity, Example 8; type: cell-based; settings: Homo sapiens, SK-MEL-28, 72 h
Procedure: as §1, §2

[17] = test system: S1HA (human squamous carcinoma crvx); experiment: Cytotoxicity, Example 8; type: cell-based; settings: 72 h
Procedure: as §1, §2

[18] = test system: CHO (Chinese hamster ovary); experiment: Cytotoxicity, Example 8; type: cell-based; settings: Cricetulus griseus, 72 h
Procedure: as §1, §2

[19] = test system: HLF-1 (normal human diploid lung); experiment: Cytotoxicity, Example 8; type: cell-based; settings: HLF1, 72 h
Procedure: as §1, §2

[20] = test system: HT-29 (human adenocarcinoma, colon); experiment: Cytotoxicity, Example 8; type: cell-based; settings: HT-29, 72 h
Procedure: as §1, §2

[21] = test system: OVCAR-3 (human ovarian carcinoma); experiment: Cytotoxicity, Example 8; type: cell-based; settings: OVCAR-3, 72 h
Procedure: as §1, §2

MCF-7 (breast carcinoma) [22] = experiment: Cytotoxicity (sulphorhodamine B), cancer cell line, Table 1B; type: cell-based; settings: Homo sapiens, MCF7, 72 h
H322 (lung carcinoma) [23] = experiment: as above; type: cell-based; settings: NCI-H322, 72 h
[24] = test system: PC-3 (prostate carcinoma); experiment: as above; type: cell-based; settings: Homo sapiens, 72 h
SIHA (cervix carcinoma) = experiment: as above; type: cell-based; settings: Homo sapiens, SiHa, 72 h
NHDF (normal human skin) = experiment: Cytotoxicity (sulphorhodamine B), normal cell line, Table 1B; type: cell-based; settings: 72 h
[25] = test system: broad spectrum of cell lines; experiment: Cytotoxicity against a broad spectrum of cell lines (overall); settings: Table 1B
Procedure: The protaxols synthesized in this study were tested against a broad spectrum of cell lines ranging from the multiple-drug resistant ovarian (OVCAR-3) to lung (H-322) and leukemia (MOLT-4) cells in order to assess cytotoxicity, cell-type selectivity, and duration of action.
The cytotoxicities were determined using the sulphorhodamine B assay method (Skehan, P. et al. J. Nat. Canc. Inst. 82, 1107 (1990)).

L1210 (mouse leukaemia) = experiment: Cytotoxicity (sulphorhodamine B), cancer cell line, Table 1B; type: cell-based; settings: L1210, 72 h
[26] = test system: RPMI-7666 (normal human PBLs); experiment: Cytotoxicity (sulphorhodamine B), normal cell line, Table 1B; type: cell-based; settings: 72 h
[27] = test system: BT-549 (breast carcinoma); experiment: Cytotoxicity (sulphorhodamine B), cancer cell line, Table 1B; type: cell-based; settings: Homo sapiens, BT-549, 72 h
tubulin / microtubules = experiment: Tubulin polymerization-depolymerization (CaCl2-induced depolymerization of microtubules); type: biochemical; settings: 10^-6 M; 1.0 mg/mL tubulin; CaCl2 0.25 mM after 16 minutes; 37° C.; initial, no prior release
Procedure: Tubulin polymerization to microtubules is promoted by GTP, whereas CaCl2 causes depolymerization of microtubules back to tubulin (FIG. 3A). […] The designed protaxol 5 was tested for its ability to stabilize microtubules formed from tubulin via the action of GTP. […] These findings are in agreement with the previously reported loss of activity resulting from blocking the C-2' hydroxyl group.
Tubulin polynerization-depolymerization experiments with taxol and designed protaxol 5 are illustrated in FIG. 3. CaCl2 -promoted depolymerization of microtubules was suppressed by taxol and protaxol 5 (after taxol release).
These measurements may be conducted at 37° C. following a recently developed procedure described by R. Merlock and W. Wrasidlo (Analytical Biochemistry, 1993). In each case 1.0 mM GTP may be employed to promote initial polymerization of tubulin.
D: Tubulin (1.0 mg/mL) with protaxol 5 (10^-6 M) after release of taxol (as determined by HPLC, essentially quantitative conversion).

physchem = experiment: physchem
Procedure: The solubilities of the synthesized protaxols in D2 O were determined by 1H NMR spectroscopy.
The resulting mixture was centrifuged for 20 minutes and the supernatant saturated solution was analysed by ^1 H NMR spectroscopy using a Bruker AMX-400 instrument and methanol or pyridine as internal standard. The concentration of the compound was determined by comparing several signals with the CH3 signal of methanol or the NCH signal of pyridine.

[28] = test system: UCLA-P-3 (lung carcinoma); experiment: Cytotoxicity (sulphorhodamine B), cancer cell line, Table 1B; type: cell-based; settings: Homo sapiens, UCLA P-3, 72 h

For CC(=O)O[C@H]1C(=O)[C@@]2(C)[C@H]([C@H](OC(=O)c3ccccc3)[C@]3(O)C[C@H](OC(=O)[C@H](O)[C@@H](NC(=O)c4ccccc4)c4ccccc4)C(C)=C1C3(C)C)[C@]1(OC(C)=O)CO[C@@H]1C[C@@H]2O [Taxol], the “water solubility of taxol” value [1] is listed as “only slightly soluble in water; also recorded: essentially insoluble in water”, the IC50 (SK (melanoma)) is listed as 10 µM and the IC50 [2] is listed as less than 0.001 µM. It also gave an IC50 [3] of 100 µM, an IC50 [4] of 0.1 µM and an IC50 [5] of 1 µM. For the same molecule, the IC50 [6] was less than 0.001 µM, the IC50 [7] was 100 µM and the IC50 (HT-29 (colon carcinoma)) was less than 0.001 µM. It also gave an IC50 [8] of less than 0.001 µM, an IC50 (Capan-1 (pancreatic)) of less than 0.001 µM and an IC50 [9] of 44.6 µM. It also gave an IC50 [10] of 0.098 µM, an IC50 [11] of 208 µM and an IC50 (H322 (lung carcinoma) [12]) of 122 µM. For the same molecule, the IC50 [13] was 69.1 µM, the IC50 [14] was 0.184 µM and the IC50 [15] was 60.6 µM. It also gave an IC50 (MCF-7 (breast carcinoma) [16]) of 64.4 µM, an IC50 (SK-MEL-28 (melanoma)) of 100 µM and an IC50 [17] of 1110 µM. For the same molecule, the IC50 [18] was 53.5 µM, the IC50 [19] was 63 µM and the IC50 [20] was 0.098 µM. The IC50 [21] was 0.098 µM, the IC50 (MCF-7 (breast carcinoma) [22]) was less than 10 µM and the IC50 (H322 (lung carcinoma) [23]) was 0.001 µM. It also gave an IC50 [24] of 1 µM, an IC50 (SIHA (cervix carcinoma)) of 10 µM and an IC50 (NHDF (normal human skin)) of 1 µM. For the same molecule, the “selectivity against cancer cells versus normal cells” value [25] was “rather impressive selectivity”, the IC50 (L1210 (mouse leukaemia)) was 1 µM and the IC50 [26] was 100 µM. For the same molecule, the IC50 [27] was 0.001 µM, the “prevention of CaCl2-induced depolymerization of microtubules” value (tubulin / microtubules) was “stabilizes microtubules against CaCl2-induced depolymerization; also recorded: suppressed; also recorded: did not cause depolymerization” and the Water solubility (physchem) was less than 100 µg/mL. For the same molecule, the IC50 [28] was less than 0.001 µM.
